The source of these data is publication PMC9750872, “Ras-mutant cancers are sensitive to small molecule inhibition of V-type ATPases in mice” (Nature biotechnology, 2022).

Like-named read-outs stand apart in the source and are kept apart here.

Assay [1] has as its system panel of 53 cancer cell lines. Nature of the assay: 249C sensitivity in a panel of 53 cancer cell lines. The conditions noted are these: Homo sapiens, read-out: median IC50. In kind it is cell-based. The procedure:
Figure 1: Optimization of Potency and Drug Properties of Small Molecule Inhibitors of Ras- and Raf-mutant Cells using Viability Screens. (A) Cell viability screen of ~300 small molecules in A549 (KRASG12S), LOX IMVI (BRAFV600E), and MelJuso (HRASG13D and NRASQ61L). Cells were treated with vehicle DMSO or increasing concentrations of small molecules in triplicate for 72 h and ATP content/viability was measured using CellTiter-Glo Luminescent Cell Viability Assay. The results shown for all cell viability figures are representative of at least two independent experiments. […] (F) Quantitative whole proteome analysis of the effects of small molecule treatment by mass spectrometry. A549 cells were treated with DMSO or 68 (30 μM), 226C (1μM) or 249C (1μM) for 48 h prior to analysis of proteomes with TMT labeling followed by quantification relative to the DMSO control. […]
The Cancer Cell Line Encyclopedia (CCLE, http://www.broadinstitute.org/ccle) was used to download somatic mutation data for over 1000 cancer cell lines [(CCLE_DepMap_18q3_maf_20180718.txt) from CCLE at https://depmap.org/portal/download/ (2018)][61]. We filtered the data to retain only mutations (single nucleotide variants, SNVs, and insertion deletions, indels) detected in 53 cell lines that were included in our MTS assays (Fig. 1). […] Genes with multiple mutations in the same cell line were only counted once. […]

For assay [2], the target named is DDR1 (Homo sapiens, UniProt Q08345). The assay can be described thus: KINOMEscan Kd determination. The conditions noted are these: 11-point serial dilution, top 30,000 nM. It counts as binding. The source says:
(§1) The KINOMEscan™ Profiling Service consisting of 468 human kinases was used to assess 249C inhibitor activity to check for off-target effects as previously described.
(§2) Supplementary Fi g u re 12: Compound 249C assessed for off-target effects using the KIN OME scanTM screening platform. (A) Selectivity (S-score) for 249C wher e the sco re is a qu antitative measu re o f compound selectivity against human kinases. It is calculate b y dividing the number of k inases that compounds bi nd to b y the total number of distinct kinases tested, excluding mutant variants (S = number of hits / number of assa ys). 1 hit out of >400 kinases is reported for test compound (249C) = 0.002. S(35) = number of non- mutant kinases with % ctrl <35/number of non- mutant kinases; (B) Kinome interaction map for 249C at 10,000 nM. Each red dot indicates a kinase found to bind, where larger dots indicate higher affinit y interactions.
(§3) 1 Tyrosine Kinase (TK) out of >400 kinases ( created in TREEspotTM ) with low affinity. This is calculated using
(§4) Dissociation constants (Kds) were determined using 249C at 30,000 nM, Hill slopes were set to - 1 and curves were fitted using a non- linear least square fit with the […]
(§5) (1 picture or pasted object on this page, not shown here)

For assay [3], the target named is DDR2 (Homo sapiens, UniProt Q16832). Nature of the assay: KINOMEscan Kd determination. In kind it is binding. Conditions: 11-point serial dilution, top 30,000 nM.
Chain of DDR2 (Q16832 22-855): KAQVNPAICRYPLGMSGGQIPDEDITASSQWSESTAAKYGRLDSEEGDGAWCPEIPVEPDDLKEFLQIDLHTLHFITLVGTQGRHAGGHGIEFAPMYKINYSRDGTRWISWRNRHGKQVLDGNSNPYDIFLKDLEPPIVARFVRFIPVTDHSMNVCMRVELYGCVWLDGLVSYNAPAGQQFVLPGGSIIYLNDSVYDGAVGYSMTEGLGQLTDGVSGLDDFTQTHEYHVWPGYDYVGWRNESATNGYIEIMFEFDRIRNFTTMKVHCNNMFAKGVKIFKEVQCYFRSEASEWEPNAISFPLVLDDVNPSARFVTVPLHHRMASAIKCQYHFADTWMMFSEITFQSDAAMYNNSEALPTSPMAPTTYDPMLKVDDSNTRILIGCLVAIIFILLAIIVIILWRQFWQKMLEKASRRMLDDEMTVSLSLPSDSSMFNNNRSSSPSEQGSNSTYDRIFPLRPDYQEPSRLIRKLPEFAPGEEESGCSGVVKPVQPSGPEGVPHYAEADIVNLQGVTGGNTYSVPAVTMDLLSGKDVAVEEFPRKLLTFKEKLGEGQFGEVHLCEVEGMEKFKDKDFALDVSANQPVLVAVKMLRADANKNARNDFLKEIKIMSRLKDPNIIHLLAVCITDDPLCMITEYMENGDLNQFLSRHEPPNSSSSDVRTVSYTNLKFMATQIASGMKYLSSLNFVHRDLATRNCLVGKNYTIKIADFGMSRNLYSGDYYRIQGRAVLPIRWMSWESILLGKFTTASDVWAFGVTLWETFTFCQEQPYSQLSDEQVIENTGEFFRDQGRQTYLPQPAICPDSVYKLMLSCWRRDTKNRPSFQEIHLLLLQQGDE
Source text: as §1, §2, §3, §4, §5

Assay [4] relates to MEFs KRAS G12D. Nature of the assay: Cell proliferation of Ras-less MEFs expressing human KRAS/BRAF. The conditions noted are these: Mus musculus.
Procedure: Logarithmically growing cells were plated in antibiotic-free medium supplemented with 2% fetal bovine serum at a density of 5,000 cells per well. The next day, cells were treated in triplicates with increasing doses of in-house small molecule inhibitor drugs and a DMSO vehicle control for 3 days and subsequently assessed for cell viability by measurement of ATP with CellTiter-Glo Luminescent Cell Viability Assay (Promega). Signal intensity was read on a Glomax™ 96 Microplate Luminometer (Promega) with GLOMAX software (version 1.9.3) and percent cell survival was calculated based on the reading of vehicle control cells set as 100% using Excel (2012) and GraphPad Prism (version 6)Each compound was tested a minimum of 2 times with n = 3. All cell proliferation assays (cancer cell lines or MEFs) were done in a similar way.

Chain of DDR1 (Q08345 19-913): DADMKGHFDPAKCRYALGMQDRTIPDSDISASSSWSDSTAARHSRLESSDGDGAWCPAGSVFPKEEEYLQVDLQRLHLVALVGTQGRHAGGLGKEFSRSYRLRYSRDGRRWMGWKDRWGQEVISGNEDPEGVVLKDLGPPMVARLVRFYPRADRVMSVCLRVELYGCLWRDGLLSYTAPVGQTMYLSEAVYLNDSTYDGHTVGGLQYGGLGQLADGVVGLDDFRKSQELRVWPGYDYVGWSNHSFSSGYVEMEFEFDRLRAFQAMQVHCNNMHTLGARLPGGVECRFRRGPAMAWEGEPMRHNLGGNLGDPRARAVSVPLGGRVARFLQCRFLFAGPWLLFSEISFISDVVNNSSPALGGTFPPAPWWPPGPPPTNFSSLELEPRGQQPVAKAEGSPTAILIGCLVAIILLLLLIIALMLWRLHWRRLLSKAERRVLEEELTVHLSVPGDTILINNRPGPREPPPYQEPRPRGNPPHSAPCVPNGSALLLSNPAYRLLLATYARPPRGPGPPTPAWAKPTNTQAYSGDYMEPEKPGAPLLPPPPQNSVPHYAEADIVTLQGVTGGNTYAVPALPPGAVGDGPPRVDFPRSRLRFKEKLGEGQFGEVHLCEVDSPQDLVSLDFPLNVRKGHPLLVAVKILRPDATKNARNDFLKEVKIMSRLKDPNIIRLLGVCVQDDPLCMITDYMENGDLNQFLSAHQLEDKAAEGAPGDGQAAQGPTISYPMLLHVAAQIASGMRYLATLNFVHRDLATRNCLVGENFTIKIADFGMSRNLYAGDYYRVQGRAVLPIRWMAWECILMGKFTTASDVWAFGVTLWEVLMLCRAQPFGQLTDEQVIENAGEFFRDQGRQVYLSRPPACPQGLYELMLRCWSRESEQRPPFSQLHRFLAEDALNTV

By IC50 is commonly meant the concentration at which inhibition is half-maximal. One may read the Kd as the concentration at which binding is half-saturated. A high value points to a looser complex. `CN1CCOC(CNC(=O)C2(C)C(c3ccc(Cl)o3)C(c3ccc(F)cc3F)=NN2c2ccc(F)cc2F)C1` (centres unmarked) [Compound 249C]: the IC50 in assay [1] (KRAS/HRAS/NRAS/BRAF mutant cells) is 0.065 µM; in assay [1] (cells with no mutations in these genes) it was 0.365 µM; in assay [4], 0.3 µM. Further, the dissociation constant Kd worked out at 5.4 µM in assay [2] and 16 µM in assay [3].
